Measured values from US8173631B2, “Cyclic amine compounds” (Daiichi Sankyo Company, Limited, priority 2008, dated 2012).
pIC50: −log10 of the molar value.

Key:
PTH secretion = experiment: Evaluation of PTH secretion promoting activity in a rat (blood serum PTH after oral administration); type: in vivo; conditions: female F344 rat, oral 3 mg/5 mL/kg, Mean ± S.D., n = 3
Method: Evaluation of PTH Secretion Promoting Activity in a Rat
A 10 to 14-week old female F344 rat (Charles River Japan, Inc.) fasted overnight was anesthetized using ether, and blood serum before the administration was prepared by drawing blood from the jugular vein of the animal. Subsequently, the test compound was orally administered at a dose of 3 mg/5 mL/kg using a solvent (0.5% aqueous methyl cellulose solution containing 5% DMA). Blood was drawn from the jugular vein under ether anesthesia at 5, 15, 30, 60, 120, and 240 minutes after the administration of the test compound, and the blood serum was prepared. The blood serum PTH concentration was measured using rat Intact PTH ELISA kit (manufactured by Immutopics, Inc.).

[1] = target: T1, human calcium-sensing receptor (CaSR) (Homo sapiens, UniProt P41180); experiment: Inhibitory activity on calcium-sensing receptor (CaSR), intracellular calcium increase as indicator (FLIPR, CHO/hCaSR); type: cell-based; conditions: CHO cells stably expressing human CaSR; inhibition of intracellular Ca increase induced by extracellular CaCl2
T1 construct: expressed in transfected cells
T1 sequence (P41180 20-1078): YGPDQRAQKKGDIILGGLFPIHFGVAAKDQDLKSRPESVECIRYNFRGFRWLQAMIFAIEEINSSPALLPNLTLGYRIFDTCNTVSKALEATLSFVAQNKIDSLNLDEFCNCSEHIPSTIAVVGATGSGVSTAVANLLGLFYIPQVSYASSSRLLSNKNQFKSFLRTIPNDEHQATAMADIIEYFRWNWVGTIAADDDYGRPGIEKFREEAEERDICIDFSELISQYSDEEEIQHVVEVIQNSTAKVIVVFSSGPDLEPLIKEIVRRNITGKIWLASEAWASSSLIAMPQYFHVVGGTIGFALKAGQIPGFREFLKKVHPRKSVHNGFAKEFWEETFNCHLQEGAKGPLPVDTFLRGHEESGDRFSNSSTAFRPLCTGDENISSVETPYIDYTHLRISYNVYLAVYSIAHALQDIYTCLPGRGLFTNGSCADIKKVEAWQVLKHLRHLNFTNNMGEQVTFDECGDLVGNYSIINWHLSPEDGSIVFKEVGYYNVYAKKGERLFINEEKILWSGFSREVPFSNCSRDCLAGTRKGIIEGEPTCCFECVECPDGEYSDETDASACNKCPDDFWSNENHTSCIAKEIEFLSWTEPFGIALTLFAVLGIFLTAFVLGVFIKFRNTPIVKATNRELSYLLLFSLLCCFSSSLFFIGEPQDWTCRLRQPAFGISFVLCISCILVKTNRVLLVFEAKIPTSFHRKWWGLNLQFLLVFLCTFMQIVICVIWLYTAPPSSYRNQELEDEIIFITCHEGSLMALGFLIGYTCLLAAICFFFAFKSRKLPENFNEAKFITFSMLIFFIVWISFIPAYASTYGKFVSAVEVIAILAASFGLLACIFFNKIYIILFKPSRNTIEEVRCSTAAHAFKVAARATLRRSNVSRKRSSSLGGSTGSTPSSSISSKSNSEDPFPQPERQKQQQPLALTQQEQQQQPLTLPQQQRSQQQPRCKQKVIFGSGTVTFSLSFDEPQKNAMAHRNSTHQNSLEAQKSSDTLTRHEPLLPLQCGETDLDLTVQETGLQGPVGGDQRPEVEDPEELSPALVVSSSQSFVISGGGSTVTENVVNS
Summary of the method: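 CHO/hCaSR cells loaded with Calcium 3 dye in HEPES/HBSS (Ca/Mg-free, 2.5 mM probenecid, pH 7.4), then preincubated 15 min with compound (final 1.05–10,000 nM). Challenged with CaCl2 ([…]) and fluorescence followed by FLIPR. IC50 derived from the peak-minus-baseline fluorescence increase.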

In the case of `Cc1ccc(C[C@@H]2CCCN2C[C@@H](O)CO[C@H](C)c2cccc(C(F)(F)F)c2CCC(=O)O)cc1F` [Example 9, 3-{2-[(1R)-1-({(2R)-3-[(2S)-2-(3-Fluoro-4-methylbenzyl)pyrrolidin-1-yl]-2-hydroxypropyl}oxy)ethyl]-6-(trifluoromethyl)phenyl}propanoic acid], the “Blood Serum PTH (1-84) Concentration, 0 minute” value (PTH secretion) was 87.9 ± 25.5 pg/mL, the “Blood Serum PTH (1-84) Concentration, After 5 minutes” value (PTH secretion) was 117.2 ± 32.4 pg/mL and the “Blood Serum PTH (1-84) Concentration, After 15 minutes” value (PTH secretion) was 476.5 ± 99.7 pg/mL. The “Blood Serum PTH (1-84) Concentration, After 30 minutes” value (PTH secretion) was 235.6 ± 99.1 pg/mL, the “Blood Serum PTH (1-84) Concentration, After 60 minutes” value (PTH secretion) was 49.1 ± 16.9 pg/mL and the “Blood Serum PTH (1-84) Concentration, After 120 minutes” value (PTH secretion) was 33.6 ± 5.1 pg/mL. For the same compound, the “Blood Serum PTH (1-84) Concentration, After 240 minutes” value (PTH secretion) was 117.2 ± 27.7 pg/mL and the pIC50 [1] was ≥ 5.50.
In the case of `Cc1ccc(C[C@@H]2CCN2C[C@@H](O)CO[C@H](C)c2ccccc2CCC(=O)O)cc1F` [Example 14, 3-{2-[(1R)-1-({(2R)-3-[(2R)-2-(3-Fluoro-4-methylbenzyl)azetidin-1-yl]-2-hydroxypropyl}oxy)ethyl]phenyl}propanoic acid], the “Blood Serum PTH (1-84) Concentration, 0 minute” value (PTH secretion) was 53.3 ± 4.4 pg/mL, the “Blood Serum PTH (1-84) Concentration, After 5 minutes” value (PTH secretion) was 195.9 ± 16.9 pg/mL and the “Blood Serum PTH (1-84) Concentration, After 15 minutes” value (PTH secretion) was 429.0 ± 111.0 pg/mL. The “Blood Serum PTH (1-84) Concentration, After 30 minutes” value (PTH secretion) was 198.2 ± 61.0 pg/mL, the “Blood Serum PTH (1-84) Concentration, After 60 minutes” value (PTH secretion) was 41.8 ± 5.8 pg/mL and the “Blood Serum PTH (1-84) Concentration, After 120 minutes” value (PTH secretion) was 42.0 ± 8.5 pg/mL. For the same compound, the “Blood Serum PTH (1-84) Concentration, After 240 minutes” value (PTH secretion) was 64.2 ± 6.3 pg/mL and the pIC50 [1] was ≥ 5.43.
`Cc1cc(CCC(=O)O)c([C@@H](C)OC[C@H](O)CN2CCC[C@H]2Cc2ccc(Cl)c(F)c2)cc1F` [Example 148] was tested, and the pIC50 [1] was ≥ 5.49.
In the case of `COc1cccc([C@@H](C)OC[C@H](O)CN2CCC[C@H]2Cc2ccc(Cl)c(F)c2)c1CCC(=O)O` [Example 168], the pIC50 [1] was ≥ 5.49.
With `C[C@@H](OC[C@H](O)CN1CCC[C@H]1Cc1ccc(F)c(F)c1)c1ccccc1CCC(=O)O` [Example 38] the pIC50 [1] was ≥ 5.45.
For `C[C@@H](OC[C@H](O)CN1CCC[C@H]1Cc1ccc(Cl)c(F)c1)c1cccc(F)c1CCC(=O)O` [Example 91], the pIC50 [1] was ≥ 5.48.
`CCC[C@@H](OC[C@H](O)CN1CCC[C@H]1Cc1ccc(C)c(F)c1)c1cc(F)ccc1CCC(=O)O` [Example 61] was tested, and the pIC50 [1] was ≥ 5.49.
`Cc1ccc(C[C@@H]2CCCN2C[C@@H](O)COC(C)c2c(CCC(=O)O)ccc(F)c2F)cc1F` (stereo partly drawn) [Example 34] was tested, and the pIC50 [1] was ≥ 5.48.
In the case of `Cc1ccc(C[C@@H]2CCCN2C[C@@H](O)CO[C@H](C)c2cccc(F)c2CCC(=O)O)cc1Cl` [Example 90], the pIC50 [1] was ≥ 5.48.
With `Cc1ccc(C[C@@H]2CCCN2C[C@@H](O)CO[C@H](C)c2ccccc2CCCCC(=O)O)cc1F` [Example 13, 5-{2-[(1R)-1-({(2R)-3-[(2S)-2-(3-Fluoro-4-methylbenzyl)pyrrolidin-1-yl]-2-hydroxypropyl}oxy)ethyl]phenyl}pentanoic acid] the pIC50 [1] was ≥ 5.47.
For `C[C@@H](OC[C@H](O)CN1CCC[C@H]1Cc1ccc(Cl)c(Cl)c1)c1ccccc1CCC(=O)O` [Example 88], the pIC50 [1] was ≥ 5.48.
`CCC[C@@H](OC[C@H](O)CN1CCC[C@H]1Cc1ccc(C)c(F)c1)c1cccc(F)c1CCC(=O)O` [Example 63] was tested, and the pIC50 [1] was ≥ 5.49.
In the case of `Cc1ccc(C[C@@H]2CCCN2C[C@@H](O)CO[C@H](C)c2ccc(Cl)cc2CCC(=O)O)cc1Cl` [Example 127], the pIC50 [1] was ≥ 5.49.
In the case of `C[C@@H](OC[C@H](O)CN1CCC[C@H]1Cc1ccc(Cl)c(F)c1)c1cc(F)cc(F)c1CCC(=O)O` [Example 133], the pIC50 [1] was ≥ 5.49.
In the case of `CCc1cc(C[C@@H]2CCCN2C[C@@H](O)CO[C@H](CC)c2cc(F)c(C)cc2CCC(=O)O)ccc1Cl` [Example 119], the pIC50 [1] was ≥ 5.51.
In the case of `CC[C@@H](OC[C@H](O)CN1CCC[C@H]1Cc1ccc(Cl)c(Cl)c1)c1cc(F)cc(F)c1CCC(=O)O` [Example 110], the pIC50 [1] was ≥ 5.52.
In the case of `CCOc1cccc([C@@H](C)OC[C@H](O)CN2CCC[C@H]2Cc2ccc(C)c(F)c2)c1CCCCC(=O)O` [Example 72], the pIC50 [1] was ≥ 5.51.
`C[C@@H](OC[C@H](O)CN1CCC[C@H]1Cc1ccc(Cl)c(F)c1)c1cccc(Cl)c1CCC(=O)O` [Example 153] was tested, and the pIC50 [1] was ≥ 5.49.
With `Cc1ccc([C@@H](C)OC[C@H](O)CN2CCC[C@H]2Cc2ccc(C)c(Cl)c2)c(CCC(=O)O)c1` [Example 126] the pIC50 [1] was ≥ 5.47.
With `CC[C@@H](OC[C@H](O)CN1CCC[C@H]1Cc1ccc(Cl)c(F)c1)c1cccc(OC)c1CCC(=O)O` [Example 173] the pIC50 [1] was ≥ 5.50.
In the case of `CCC[C@@H](OC[C@H](O)CN1CCC[C@H]1Cc1ccc(C)c(F)c1)c1cc(Cl)ccc1CCC(=O)O` [Example 123], the pIC50 [1] was ≥ 5.50.
`CCc1cc(C[C@@H]2CCCN2C[C@@H](O)CO[C@H](C)c2cc(F)cc(F)c2CCC(=O)O)ccc1Cl` [Example 107] was tested, and the pIC50 [1] was ≥ 5.50.
With `CC[C@@H](OC[C@H](O)CN1CCC[C@H]1Cc1ccc(C)c(F)c1)c1cc(F)cc(F)c1CCC(=O)O` [Example 155] the pIC50 [1] was ≥ 5.49.
`C[C@@H](OC[C@H](O)CN1CCC[C@H]1Cc1ccc(Cl)c(Cl)c1)c1ccc(Cl)cc1CCC(=O)O` [Example 160] was tested, and the pIC50 [1] was ≥ 5.51.
In the case of `CC[C@@H](OC[C@H](O)CN1CCC[C@H]1Cc1ccc(Cl)c(F)c1)c1cc(F)c(F)cc1CCC(=O)O` [Example 145], the pIC50 [1] was ≥ 5.51.
For `Cc1ccc(C[C@@H]2CCCN2C[C@@H](O)CO[C@H](C)c2ccccc2CCCCCCC(=O)O)cc1F` [Example 77], the pIC50 [1] was ≥ 5.49.
In the case of `Cc1ccc(C[C@@H]2CCCN2C[C@@H](O)COC(C)c2c(C)cccc2CCC(=O)O)cc1F` (stereo partly drawn) [Example 32], the pIC50 [1] was ≥ 5.46.
In the case of `CC[C@@H](OC[C@H](O)CN1CCC[C@H]1Cc1ccc(C)c(F)c1)c1cc(F)c(C)cc1CCCCC(=O)O` [Example 70], the pIC50 [1] was ≥ 5.51.
In the case of `CC[C@@H](OC[C@H](O)CN1CCC[C@H]1Cc1ccc(Cl)c(F)c1)c1ccc(Cl)cc1CCC(=O)O` [Example 137], the pIC50 [1] was ≥ 5.51.
With `COc1cccc([C@@H](C)OC[C@H](O)CN2CCC[C@H]2Cc2ccc(C)c(Cl)c2)c1CCC(=O)O` [Example 167] the pIC50 [1] was ≥ 5.49.
`CC[C@@H](OC[C@H](O)CN1CCC[C@H]1Cc1ccc(Cl)c(Cl)c1)c1cccc(F)c1CCC(=O)O` [Example 108] was tested, and the pIC50 [1] was ≥ 5.51.
